Data on 34 compounds can be found in ChEMBL document CHEMBL4725344, “Development of Highly Potent Carbazole Amphiphiles as Membrane-Targeting Antimicrobials for Treating Gram-Positive Bacterial Infections” (J Med Chem, 2020).

Converted amounts (≈) assume the structure as drawn.

For data set [1], the system named is Staphylococcus aureus. In words: Antibacterial activity against methicillin-resistant Staphylococcus aureus N315 measured after 24 hrs by microplate reader analysis. The class given is functional.
The test system of data set [2] is Staphylococcus aureus. In words: Antibacterial activity against Staphylococcus aureus ATCC 29213 measured after 24 hrs by microplate reader analysis. The class given is functional.
Data set [3] can be described thus: Hemolytic activity in rabbit erythrocytes measured after 1 hr by microplate reader analysis. It is filed as ADME, cell-based, Oryctolagus cuniculus, Erythrocyte.
The subject of data set [4] is Staphylococcus aureus. In words: Antibacterial activity against methicillin-resistant Staphylococcus aureus NCTC 10442 measured after 24 hrs by microplate reader analysis. It is filed as functional.
Data set [5] is described as follows: Solubility of the compound in water. The class given is physicochemical. The following applies: buffer.

One may read the MIC as the smallest concentration in the dilution series that meets the test's criterion for growth inhibition. A low value points to inhibition by little substance. A word on the HC50: it is the concentration giving 50% haemolysis. In the case of `CN(C)CC(O)COc1cccc2c1c1ccccc1n2C` (stereo not drawn), the MIC with Staphylococcus aureus [1], in the data set on Staphylococcus aureus [2] and against Staphylococcus aureus [4] was more than 50 mg/L each time. Besides, the HC50 at 1 h in data set [3] was more than 200 µg/mL.

As for `CC(C)NCC(O)COc1cccc2[nH]c3ccccc3c12` (stereo not drawn) [CARAZOLOL], the MIC with Staphylococcus aureus [1], against Staphylococcus aureus [2] and with Staphylococcus aureus [4] was more than 50 mg/L each time. In data set [3], the concentration for 50% haemolysis (HC50) at 1 h is more than 200 µg/mL.

On to `CCCn1c2ccccc2c2c(OCC(O)CN(C)C)cccc21` (stereo not drawn), for which the minimum inhibitory concentration (MIC) against Staphylococcus aureus [1], in the data set on Staphylococcus aureus [2] and in the data set on Staphylococcus aureus [4] was 50 mg/L (≈ 153 µM) each time. In addition, in data set [3], the concentration for 50% haemolysis (HC50) at 1 h was more than 200 µg/mL.

Consider `CC(C)=CCn1c2ccccc2c2c(OCC(O)CN)cccc21` (stereo not drawn), for which the MIC was 6.25 mg/L (≈ 19.3 µM) against Staphylococcus aureus [1], 12.5 mg/L (≈ 38.5 µM) in the data set on Staphylococcus aureus [2] and 6.25 mg/L (≈ 19.3 µM) against Staphylococcus aureus [4]. The HC50 at 1 h in data set [3] is more than 200 µg/mL.

Turning to `CCCCCNCC(O)COc1cccc2c1c1ccccc1n2CC=C(C)C` (stereo not drawn), the minimum inhibitory concentration (MIC) in the data set on Staphylococcus aureus [1] came out at 6.25 mg/L (≈ 15.8 µM); in the data set on Staphylococcus aureus [2], 12.5 mg/L (≈ 31.7 µM); with Staphylococcus aureus [4], 12.5 mg/L (≈ 31.7 µM). In data set [3], this compound came in with an HC50 at 1 h of more than 200 µg/mL.

With `N=C(N)NCC(O)COc1cccc2[nH]c3ccccc3c12` (stereo not drawn), the minimal inhibitory concentration (MIC) in the data set on Staphylococcus aureus [1], with Staphylococcus aureus [2] and against Staphylococcus aureus [4] was 50 mg/L (≈ 168 µM) each time. Further, the HC50 at 1 h in data set [3] was more than 200 µg/mL.

For the compound `CCCCCCCCNCC(O)COc1cccc2c1c1ccccc1n2CC=C(C)C` (stereo not drawn), the MIC stood at 1.56 mg/L (≈ 3.57 µM) against Staphylococcus aureus [1], 6.25 mg/L (≈ 14.3 µM) in the data set with Staphylococcus aureus [2] and 1.56 mg/L (≈ 3.57 µM) in the data set on Staphylococcus aureus [4]. In data set [3], this compound came in with an HC50 at 1 h of more than 200 µg/mL. Moreover, the solubility result in data set [5] is reported as “Insoluble”.

For `CC(C)=CCn1c2ccccc2c2c(OCC(O)CNC(C)C)cccc21` (stereo not drawn), the figures for the MIC with Staphylococcus aureus [1], against Staphylococcus aureus [2] and against Staphylococcus aureus [4] were 3.12 mg/L (≈ 8.53 µM), 6.25 mg/L (≈ 17.1 µM) and 3.12 mg/L (≈ 8.53 µM), respectively. The HC50 at 1 h in data set [3] stood at 160 µg/mL.

As to `CC(C)=CCn1c2ccccc2c2c(OCC(O)CN3CCN(C)CC3)cccc21` (stereo not drawn), the MIC with Staphylococcus aureus [1], in the data set with Staphylococcus aureus [2] and against Staphylococcus aureus [4] was 12.5 mg/L (≈ 30.7 µM) throughout. The concentration for 50% haemolysis (HC50) at 1 h in data set [3] worked out at 70 µg/mL.

With `CCNCC(O)COc1cccc2c1c1ccccc1n2CC=C(C)C` (stereo not drawn), the MIC with Staphylococcus aureus [1] stood at 3.12 mg/L (≈ 8.87 µM); against Staphylococcus aureus [2], 6.25 mg/L (≈ 17.7 µM); in the data set with Staphylococcus aureus [4], 6.25 mg/L (≈ 17.7 µM). The compound also returned an HC50 at 1 h in data set [3] of 156 µg/mL.

In the case of `CC(C)=CCn1c2ccccc2c2c(OCC(O)CN(C)C)cccc21` (stereo not drawn), the values for the minimum inhibitory concentration (MIC) with Staphylococcus aureus [1], in the data set with Staphylococcus aureus [2] and with Staphylococcus aureus [4] were 3.12 mg/L (≈ 8.87 µM), 6.25 mg/L (≈ 17.7 µM) and 3.12 mg/L (≈ 8.87 µM), respectively. Moreover, in data set [3], the 50% haemolytic concentration (HC50) at 1 h worked out at 119 µg/mL.

Turning to `CCCCCCCCCn1c2ccccc2c2c(OCC(O)CN(C)C)cccc21` (stereo not drawn), the minimum inhibitory concentration (MIC) in the data set with Staphylococcus aureus [1] is 6.25 mg/L (≈ 15.2 µM); against Staphylococcus aureus [2], 12.5 mg/L (≈ 30.4 µM); in the data set with Staphylococcus aureus [4], 6.25 mg/L (≈ 15.2 µM). In addition, the HC50 at 1 h in data set [3] was 128 µg/mL.

For `CCN(CC)CC(O)COc1cccc2c1c1ccccc1n2CC=C(C)C` (stereo not drawn), the MIC in the data set on Staphylococcus aureus [1], in the data set with Staphylococcus aureus [2] and in the data set on Staphylococcus aureus [4] was 12.5 mg/L (≈ 32.8 µM) in each case. This compound also gave a concentration for 50% haemolysis (HC50) at 1 h in data set [3] of 88.7 µg/mL.

Turning to `CCCCN(CCCC)CC(O)COc1cccc2c1c1ccccc1n2CC=C(C)C` (stereo not drawn), the MIC against Staphylococcus aureus [1], against Staphylococcus aureus [2] and against Staphylococcus aureus [4] was more than 50 mg/L in each case. The HC50 at 1 h in data set [3] was more than 200 µg/mL.

As for `CCCCCCCCCCNCC(O)COc1cccc2c1c1ccccc1n2CC=C(C)C` (stereo not drawn), the MIC against Staphylococcus aureus [1] amounted to 1.56 mg/L (≈ 3.36 µM); against Staphylococcus aureus [2] it was 6.25 mg/L (≈ 13.4 µM); in the data set on Staphylococcus aureus [4], 3.12 mg/L (≈ 6.72 µM). For the same compound, the HC50 at 1 h in data set [3] was more than 200 µg/mL. The solubility result in data set [5] is on record as “Insoluble”.

As to `CCCNCC(O)COc1cccc2c1c1ccccc1n2CC=C(C)C` (stereo not drawn), the MIC with Staphylococcus aureus [1] is 3.12 mg/L (≈ 8.53 µM); against Staphylococcus aureus [2], 6.25 mg/L (≈ 17.1 µM); against Staphylococcus aureus [4], 6.25 mg/L (≈ 17.1 µM). The HC50 at 1 h in data set [3] is more than 200 µg/mL.

For `CC(C)=CCn1c2ccccc2c2c(OCC3CO3)cccc21` (stereo not drawn), the MIC in the data set with Staphylococcus aureus [1], in the data set on Staphylococcus aureus [2] and in the data set on Staphylococcus aureus [4] was more than 50 mg/L in each case. Moreover, the HC50 at 1 h in data set [3] is more than 200 µg/mL.

In the case of `CC(C)=CCn1c2ccccc2c2c(OCC(O)CN3CCSCC3)cccc21` (stereo not drawn), the minimal inhibitory concentration (MIC) against Staphylococcus aureus [1], in the data set on Staphylococcus aureus [2] and in the data set with Staphylococcus aureus [4] was more than 50 mg/L each time. The compound further came in with an HC50 at 1 h in data set [3] of more than 200 µg/mL.

On to `CC(C)=CCn1c2ccccc2c2c(OCC(O)CN3CCCCC3)cccc21` (stereo not drawn), for which the figures for the MIC against Staphylococcus aureus [1], against Staphylococcus aureus [2] and in the data set with Staphylococcus aureus [4] were 3.12 mg/L (≈ 7.96 µM), 6.25 mg/L (≈ 15.9 µM) and 3.12 mg/L (≈ 7.96 µM), respectively. Besides, in data set [3], the HC50 at 1 h stood at 81.8 µg/mL.

On to `CCCn1c2ccccc2c2c(OCC3CO3)cccc21` (stereo not drawn), for which the MIC in the data set with Staphylococcus aureus [1], against Staphylococcus aureus [2] and in the data set with Staphylococcus aureus [4] was more than 50 mg/L throughout. The compound also showed an HC50 at 1 h in data set [3] of more than 200 µg/mL.

As to `CN(C)CC(O)COc1cccc2[nH]c3ccccc3c12` (stereo not drawn), the minimal inhibitory concentration (MIC) against Staphylococcus aureus [1], with Staphylococcus aureus [2] and in the data set with Staphylococcus aureus [4] was more than 50 mg/L in each case. The compound also had an HC50 at 1 h in data set [3] of more than 200 µg/mL.

On to `CC(C)=CCn1c2ccccc2c2c(OCC(O)CN(CCO)CCO)cccc21` (stereo not drawn), for which the minimal inhibitory concentration (MIC) in the data set on Staphylococcus aureus [1], in the data set with Staphylococcus aureus [2] and in the data set with Staphylococcus aureus [4] was 25 mg/L (≈ 60.6 µM) each time. In data set [3], the HC50 at 1 h is 126 µg/mL.

As for `CCCCCCCn1c2ccccc2c2c(OCC(O)CN(C)C)cccc21` (stereo not drawn), the values for the minimum inhibitory concentration (MIC) in the data set with Staphylococcus aureus [1], in the data set on Staphylococcus aureus [2] and in the data set with Staphylococcus aureus [4] were 12.5 mg/L (≈ 32.7 µM), 6.25 mg/L (≈ 16.3 µM) and 12.5 mg/L (≈ 32.7 µM), respectively. Moreover, the HC50 at 1 h in data set [3] amounted to 182 µg/mL.

With `CCCC[N+](C)(CCCC)CC(O)COc1cccc2c1c1ccccc1n2CC=C(C)C.[I-]` (stereo not drawn), the minimal inhibitory concentration (MIC) in the data set with Staphylococcus aureus [1], against Staphylococcus aureus [2] and in the data set with Staphylococcus aureus [4] was 1.56 mg/L in each case. Also, in data set [3], the concentration for 50% haemolysis (HC50) at 1 h came to 61.3 µg/mL.

Take `CC(C)=CCn1c2ccccc2c2c(OCC(O)CN3CCCC3)cccc21` (stereo not drawn): the minimal inhibitory concentration (MIC) in the data set on Staphylococcus aureus [1] was found to be 6.25 mg/L (≈ 16.5 µM); with Staphylococcus aureus [2] it was 12.5 mg/L (≈ 33 µM); in the data set with Staphylococcus aureus [4], 6.25 mg/L (≈ 16.5 µM). In addition, in data set [3], the concentration for 50% haemolysis (HC50) at 1 h was 76.2 µg/mL.

On to `c1ccc2c(c1)[nH]c1cccc(OCC3CO3)c12` (stereo not drawn), for which the MIC in the data set with Staphylococcus aureus [1], with Staphylococcus aureus [2] and against Staphylococcus aureus [4] was more than 50 mg/L throughout. For the same compound, the HC50 at 1 h in data set [3] is more than 200 µg/mL.

For `CCCN(CCC)CC(O)COc1cccc2c1c1ccccc1n2CC=C(C)C` (stereo not drawn), the MIC in the data set with Staphylococcus aureus [1], against Staphylococcus aureus [2] and in the data set with Staphylococcus aureus [4] was more than 50 mg/L each time. The HC50 at 1 h in data set [3] was more than 200 µg/mL.

For the compound `CCCCCCCn1c2ccccc2c2c(OCC3CO3)cccc21` (stereo not drawn), the minimum inhibitory concentration (MIC) against Staphylococcus aureus [1], against Staphylococcus aureus [2] and in the data set on Staphylococcus aureus [4] was more than 50 mg/L throughout. In addition, the 50% haemolytic concentration (HC50) at 1 h in data set [3] was more than 200 µg/mL.

As for `NCC(O)COc1cccc2[nH]c3ccccc3c12` (stereo not drawn), the MIC against Staphylococcus aureus [1], in the data set with Staphylococcus aureus [2] and against Staphylococcus aureus [4] was more than 50 mg/L each time. In data set [3], this compound gave a concentration for 50% haemolysis (HC50) at 1 h of more than 200 µg/mL.

Turning to `CC[N+](C)(CC)CC(O)COc1cccc2c1c1ccccc1n2CC=C(C)C.[I-]` (stereo not drawn), the minimum inhibitory concentration (MIC) with Staphylococcus aureus [1], in the data set with Staphylococcus aureus [2] and against Staphylococcus aureus [4] was 6.25 mg/L each time. This compound had an HC50 at 1 h in data set [3] of 142 µg/mL.

`Cn1c2ccccc2c2c(OCC3CO3)cccc21` (stereo not drawn): the MIC in the data set with Staphylococcus aureus [1], in the data set on Staphylococcus aureus [2] and against Staphylococcus aureus [4] was more than 50 mg/L in each case. In data set [3], this compound returned a 50% haemolytic concentration (HC50) at 1 h of more than 200 µg/mL.

Regarding `CCCCCn1c2ccccc2c2c(OCC(O)CN(C)C)cccc21` (stereo not drawn), the values for the minimal inhibitory concentration (MIC) in the data set with Staphylococcus aureus [1], in the data set with Staphylococcus aureus [2] and with Staphylococcus aureus [4] were 6.25 mg/L (≈ 17.6 µM), 12.5 mg/L (≈ 35.3 µM) and 6.25 mg/L (≈ 17.6 µM), respectively. Also, the 50% haemolytic concentration (HC50) at 1 h in data set [3] was 152 µg/mL.

Consider `CCCCCCCCCn1c2ccccc2c2c(OCC3CO3)cccc21` (stereo not drawn), for which the MIC against Staphylococcus aureus [1], in the data set on Staphylococcus aureus [2] and in the data set on Staphylococcus aureus [4] was more than 50 mg/L in each case. Further, the HC50 at 1 h in data set [3] is more than 200 µg/mL.

As to `CCCCCn1c2ccccc2c2c(OCC3CO3)cccc21` (stereo not drawn), the minimal inhibitory concentration (MIC) with Staphylococcus aureus [1], against Staphylococcus aureus [2] and with Staphylococcus aureus [4] was more than 50 mg/L in each case. In data set [3], this compound returned an HC50 at 1 h of more than 200 µg/mL.
